We go through three compounds from BindingDB's records for doi:10.1016/s0960-894x(01)00278-5 (Pharmacia, 2001).

Structures are written as SMILES.

This assay can be described thus: Binding affinity towards guinea pig Opioid receptor kappa 1 using radioligand [3H]U69,593.
In the case of `CN(C)C(=O)c1ccc2c3c1OC1C(O)C=C[C@H]4[C@@H](C2)N(C)CC[C@]314` (stereo partly drawn) [4,10N,10N-trimethyl-14-hydroxy-(1S,5R,17R)-12-oxa-4-azapentacyclo[9.6.1.01,13.05,17.07,18]octadeca-7,9,11(18),15-tetraene-10-carboxamide], the Ki (in general, a dissociation constant, usually derived from enzyme kinetics or from competition with a known ligand) is above 10 µM.
Consider `CNC(=O)c1ccc2c3c1OC1C(O)C=C[C@H]4[C@@H](C2)N(C)CC[C@]314` (stereo partly drawn) [4,10N-dimethyl-14-hydroxy-(1S,5R,17R)-12-oxa-4-azapentacyclo[9.6.1.01,13.05,17.07,18]octadeca-7,9,11(18),15-tetraene-10-carboxamide], for which the Ki is above 10 µM.
The compound `CN1CC[C@]23c4c5ccc(C(N)=O)c4OC2C(O)C=C[C@H]3[C@H]1C5` (stereo partly drawn) [14-hydroxy-4-methyl-(1S,5R,17R)-12-oxa-4-azapentacyclo[9.6.1.01,13.05,17.07,18]octadeca-7,9,11(18),15-tetraene-10-carboxamide] displayed a Ki of 1.9 µM.
